By EC50 is commonly meant the concentration that produces a half-maximal response. A high value points to weaker potency. In general, CC50 refers to the concentration giving 50% cytotoxicity. A low value points to greater toxicity to the cells.

Data set [1] deals with genome-length HCV-RNA (1B-4 strain of genotype 1b) replication in HuH-7-derived 1B-4R cells. In words: 1B-4R RL assay. In kind it is cell-based. The note with it: Hepatitis C virus, 1B-4R assay, HuH-7, HCV strain 1B-4, 72 hrs. The protocol: (§1) RSc and D7 cells were derived from the cell lines HuH-7 and Li23, respectively, were cultured as described previously, [29]. HuH-7-derived OR6 [13], AH1R [30], and 1B-4R [Ikeda et al., submitted] cells harboring genome-length HCV-RNA and HuH-7-derived polyclonal sOR [31], and RSc-JRN/35B [Ikeda et al., submitted] cells harboring an HCV subgenomic replicon were cultured with medium in the presence of G418 (0.3 mg/ml; Geneticin, Invitrogen, Carlsbad, CA) as described previously. Li23-derived ORL8 [20], ORL11 [20], 1B-4RL [Ikeda et al., submitted], and KAH5RL [Ikeda et al., submitted] cells harboring genome-length HCV-RNA were maintained with medium in the presence of G418 (0.3 mg/ml) as described previously. Li23-derived polyclonal sORL8 and sORL11 cells harboring an HCV replicon, which were established by the transfection of ORN/3-5B/QR,KE,SR RNA into the cured OL8 and OL11 cells, respectively, were also cultured with medium in the presence of G418 (0.3 mg/ml) as described previously. Cured cells, from which the HCV-RNA had been eliminated by IFN treatment, were also maintained with medium in the absence of G418 as described previously. […] Therefore, when HCV-RNA is excluded from the cells or when its level is decreased, the cells are killed in the presence of G418. […]
(§2) The SI value of each reagent was determined by dividing the CC50 value by the EC50 value.

Data set [2] in a line: WST-1 cell proliferation assay, 1B-4R cells. It counts as cell-based. The note with it: human. The protocol:
(§3) The WST-1 cell proliferation assay was performed as described previously. Briefly, The cells were plated onto 96-well plates (1×10^3 cells per well) in triplicate and then treated with each reagent at several concentrations for 72 hrs. After treatment, the cells were subjected to the WST-1 cell proliferation assay (Takara Bio, Otsu, Japan) according to the manufacturer’s protocol. This assay is based on the enzymatic cleavage of the tetrazolium salt WST-1 to formazan by cellular mitochondrial dehydrogenases present in viable cells. Therefore, there are […] the value of the WST-1 assay becomes zero. The experiments were performed at least in triplicate. From the assay results, the 50% cytotoxic concentration (CC50) of each reagent was determined.
A general note: Formazan colour is commonly taken as a measure of viable cells.

The nature of data set [3]: WST-1 cell proliferation assay, 1B-4RL cells. It counts as cell-based. The note with it: human. The protocol: as §3
The subject of data set [4] is genome-length HCV-RNA (KAH5 strain of genotype 1b) replication in Li23-derived KAH5RL cells. In words: KAH5RL RL assay. The note with it: Hepatitis C virus, Li23, HCV strain KAH5, 72 hrs. It counts as cell-based. The protocol: as §1, §2
Data set [5] is described as follows: WST-1 cell proliferation assay, KAH5RL cells. In kind it is cell-based. The following applies: human. The protocol: as §3
Data set [6] concerns HCV-JFH-1 strain (genotype 2a) in HuH-7-derived RSc cells. Put plainly: JFH-1 reporter assay system, RSc cells. It counts as cell-based, hepatitis C virus. The following applies: RSc cells inoculated with JR/C5B/BX-2 supernatant, RL assay. The protocol: (§4) HCV infection was performed as described previously. RSc and D7 cells were inoculated with supernatant from RSc cells replicating JR/C5B/BX-2 [29].
(§5) Figure 2 Characterization of anti-HCV activities of N-89 and N-251. (A) Schematic gene organization of authentic HCV-RNA (HCV-O/RLGE). The positions of four adaptive mutations - Q1112R, P1115L, E1202G, and K1609E - are indicated by a black star. (B) N-89 and N-251 inhibited authentic HCV-RNA replication. The cells harboring HCV-O/RLGE RNA [19] were treated with N-89 (left panel) and N-251 (right panel) for 72 hrs, followed by real-time LightCycler PCR (black circles in the upper panel) and WST-1 assay (open triangles in the upper panel). The relative value (%) calculated at each point, when the level in non-treated cells was assigned as 100%, is presented here. Data are expressed as the means±standard deviation of triplicate assays. Western blot analysis (lower panels) was performed as described in Fig. 1B. […]
(§6) We next examined whether N-89 and N-251 worked in an HCV production system using HCV-JFH-1 strain (genotype 2a). […] To clarify whether anti-HCV activity depends on the difference of genotype or assay model, we evaluated the activities of N-89 and N-251 using RSc-JRN/35B [Ikeda et al., submitted] cells harboring a subgenomic HCV-JFH-1 replicon as an additional assay.

The subject of data set [7] is HCV-JFH-1 strain (genotype 2a) in Li23-derived D7 cells. Put plainly: JFH-1 reporter assay system, D7 cells. In kind it is cell-based, hepatitis C virus. The following applies: D7 cells inoculated with JR/C5B/BX-2 supernatant, RL assay. The protocol:
as §4, §5, §6
A general note: Reporter assays use an easily measured gene product as a stand-in for the process of interest.

Data set [8] relates to subgenomic HCV-JFH-1 replicon in RSc-JRN/35B cells. In words: RSc-JRN/35B RL assay. In kind it is cell-based, hepatitis C virus. The protocol: RSc and D7 cells were derived from the cell lines HuH-7 and Li23, respectively, were cultured as described previously, [29]. HuH-7-derived OR6 [13], AH1R [30], and 1B-4R [Ikeda et al., submitted] cells harboring genome-length HCV-RNA and HuH-7-derived polyclonal sOR [31], and RSc-JRN/35B [Ikeda et al., submitted] cells harboring an HCV subgenomic replicon were cultured with medium in the presence of G418 (0.3 mg/ml; Geneticin, Invitrogen, Carlsbad, CA) as described previously. Li23-derived ORL8 [20], ORL11 [20], 1B-4RL [Ikeda et al., submitted], and KAH5RL [Ikeda et al., submitted] cells harboring genome-length HCV-RNA were maintained with medium in the presence of G418 (0.3 mg/ml) as described previously. Li23-derived polyclonal sORL8 and sORL11 cells harboring an HCV replicon, which were established by the transfection of ORN/3-5B/QR,KE,SR RNA into the cured OL8 and OL11 cells, respectively, were also cultured with medium in the presence of G418 (0.3 mg/ml) as described previously. […]
as §6

Data set [9] concerns HCV-RNA replication in ORL8 cells. Put plainly: Effect of VE on anti-HCV activity, ORL8 RL assay. It counts as cell-based, hepatitis C virus. The following applies: 72 hrs. The protocol: After treatment, an RL assay of harvested ORL8 cell samples was performed. (B, D, and F) The ratio of RL activity in the presence of VE to the RL activity in the absence of VE. The above ratio was calculated from the data of (A, C, and E). […] (G) Western blot analysis was performed as described in Fig. 1B.
The ORL8 cells were treated with N-89 or IFN-α, and then RL assays were performed at 2 to 72 hrs after the treatment. The relative value (%) calculated at each time point, when the luciferase activity of non-treated cells at 24 hrs was assigned as 100%, is shown. Data are expressed as the means±standard deviation of triplicate assays. […] To evaluate this possibility, we examined the effect of VE on N-89 at the EC90 level in the ORL8 assay.

On the set-up of data set [10]: method as in Kim et al., unpublished data. The following applies: ref Kim et al., unpublished data; cited from earlier work.

Take `C1CCCCCC2(CCCCC1)OOCCCOO2` [N-89, 1,2,6,7-Tetraoxaspiro[7.11]nonadecane]: the values for the EC50 in [1] and in data set [4] were 420 nM and 190 nM, respectively. In addition, the CC50 at 72 h in [2] stood at 9300 nM; in data set [3], 2400 nM; in data set [5], 2500 nM. For the same molecule, the “anti-HCV activity for the HCV-JFH-1 strain” value in [6] and in data set [7] was “did not show anti-HCV activity” in each case. Besides, the “anti-HCV activity, subgenomic HCV-JFH-1 replicon” value in [8] was “did not show any anti-HCV activities”. Besides, the “VE 10μM(+) / VE 10μM(-) ratio of RL activity” value in [9] (reagent at expected EC90, Fig. 5B (control 3.0)) amounted to 16. Also, the blood concentration result in [10] was “approximately 1 µM”.

Consider `OCCCCCCC1COOC2(CCCCCCCCCCC2)OOC1` [N-251, 6-(1,2,6,7-tetraoxaspiro[7.11]nonadec-4-yl)hexan-1-ol], for which the figures for the EC50 in data set [1] and in [4] were 980 nM and 290 nM, respectively. The CC50 at 72 h in data set [2] stood at 3800 nM; in data set [3], 1900 nM; in data set [5], 2800 nM. Moreover, the “anti-HCV activity for the HCV-JFH-1 strain” value in data set [6] and in [7] was “did not show anti-HCV activity” each time. Also, the “anti-HCV activity, subgenomic HCV-JFH-1 replicon” value in [8] is “did not show any anti-HCV activities”. Further, the “VE 10μM(+) / VE 10μM(-) ratio of RL activity” value in data set [9] (reagent at expected EC90, Fig. 5D (control 2.3)) stood at 13. The blood concentration result in data set [10] is “approximately 1 µM”.

Source of the values: article PMC3758303 (PLoS ONE, 2013).
